# Assay results reported in patent US20260069599A1, “INHIBITORS OF BROMODOMAIN-CONTAINING PROTEIN 4 AND PHOSPHOINOSITIDE 3-KINASE” (Board of Regents of the University of Nebraska, priority 2022, published 2026).
# “Also recorded” adds a separate entry of the source.
# How the values were obtained:
# [1] = tested on: DAOY cell generated orthotopic MB; test: Intracranial orthotopic MB xenograft model; type: in vivo, NSG mice; conditions: for tumor at cerebellum region by H&E and Ki-67 IHC: vehicle-treated vs treated mice
# Procedure: For the orthotopic MB model, stable luciferase-expressing DAOY cells (0.1×10^6) were used to generate the orthotopic MB tumor in NSG mice (Kumar, et al. (2021) Biomaterials 278:121138). Bioluminescence imaging using IVIS (Spectrum) was done to monitor the tumor growth weekly after implantation surgery.
# A total of seven injections were given, and the mouse body weights were measured before every injection. The tumor growth was monitored by calipers in the case of the xenograft model and by IVIS imaging for the orthotopic model. For histological examination, the major organs of representative mice from each animal group were dissected and stained with H&E. Tissues after being fixed with 10% paraformaldehyde solution for 24 hours were embedded in 5 μm thick sections of paraffin, and were stained for different proteins. Stained slides were imaged at 40× magnification using an iScan HT Slide Scanner (Ventana Medical Systems, Inc, AZ).
# Next, it was tested whether MDP5 treatment suppresses MB growth in an intracranial orthotopic xenograft model. DAOY cells stably expressing green fluorescent protein (GFP)/luciferase were injected into the cerebella of NSG mice. After twenty-one days of implantation, the tumor signal was measured with IVIS, and animals were divided into the vehicle (propylene glycol) or MDP5 treated groups. A drug solution was injected every three days for 28 days, and bioluminescence imaging was performed once a week.
# MB cells = test: RT-qPCR of target genes; type: cell-based, human; conditions: RT-PCR
# Procedure: Whole RNAs in cells after treatments were extracted using an RNA extraction kit (RNAeasy, Qiagen) to detect mRNA expression. cDNA templates were synthesized by reverse transcribing the RNA using a High-Capacity RNA-to-cDNA™ Kit (Thermo Fisher). The final RT-qPCR reaction mixture was used consisting of a total volume 10 μl containing […] SYBR Green master mix, 0.5 μl of each primer (10 μM) (Table 1), 2 μl of the cDNA template, and 3.5 μl RNase-free H2O. The relative expression level of the targeted gene was measured with Lightcycler 480 (Roche). The gene expression levels were calculated according to the 2^−ΔΔCq method using β-actin as the internal reference gene. Each assay was repeated≥3 times.
# BRD2-BD2 = target: T1, BRD2-BD2 (Homo sapiens, UniProt P25440); test: Protein Thermal Shift (PTS) assay on BRD2-BD2; type: binding; conditions: 100 μM ligand, 20 μM BD protein; positive = Tm increase
# T1 construct: polyhistidine (N, cleaved yes); made in house; host or cells: E. coli (T7 express)
# T1 sequence (P25440 344-453 limits assumed): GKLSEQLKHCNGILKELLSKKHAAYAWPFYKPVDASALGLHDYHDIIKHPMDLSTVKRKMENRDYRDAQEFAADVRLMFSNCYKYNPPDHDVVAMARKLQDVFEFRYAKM
# Procedure: The genes encoding human BRD2-BD1, BRD2-BD2, and BRD4-BD2 were codon-optimized for expression in E. coli. […] The sequence-confirmed plasmids were used to transform T7 express E coli. Large-scale cell cultures were grown in LB media containing […] carbenicillin and incubated with shaking at 37° C. until the OD600 nm reached 0.6. Then cultures were cooled to 16° C., and 1 mM isopropyl β-D-1-thiogalactopyranoside was added to induce the protein expression. After 20 hours of incubation, cells were harvested. The resulting cell pellet was resuspended in a lysis buffer containing 50 mM Tris pH 7.5, 200 mM NaCl, 0.5 mM imidazole, and 0.3 mM tris(2-carboxyethyl) phosphine (TECP). After the addition of DNase I and lysozyme, the cell suspension was incubated on ice for 30 minutes and lysed by sonication. The lysate was clarified by centrifugation at 12,000 rpm for 45 minutes. […]
# Each reaction used 20 μM concentration of recombinant BD protein in a 50 mM Tris pH 7.5 buffer containing 100 mM NaCl, 0.3 mM tris(2-carboxyethyl) phosphine HCl, and 1% dimethyl sulfoxide. […] Evaluation of the derivative of the fluorescence signal employed the Applied Bioscience Protein Thermal Shift Software version 1.3 to determine the average melting temperature (Tm) for each sample and the standard deviation(s) of those Tm values.
# ONS-76 cells = test: CD15+ tumor propagating cell population by FACS; type: cell-based; conditions: 5.0 μM, 48 hours, vs control
# Procedure: The tumor propagating cell population in ONS-76 cells was identified based on CD15+ staining by fluorescence-activated cell sorting (FACS) analysis. […] Then, cells were trypsinized and 1×10^6 cells stained with a 5 μL aliquot of APC-CD15 antibody (BioLegend; 301,908) and analyzed with flow cytometry (BD, LSR Fortessa).
# [2] = tested on: MB cells (DAOY and HD-MB03); test: Colony formation (clonogenic) assay; type: cell-based, human; conditions: 48 hours treatment, 14-day incubation, both cell lines
# Procedure: Approximately 500 MB cells were seeded overnight in 6 well plates and treated with MDP5 at IC50 for the colony formation assay. After 48 hours of incubation, the media was replaced by fresh media and allowed cells to grow for 2 weeks. Then, cells were fixed into 10% formalin and stained with a 0.5% solution of crystal violet dye in 20% methanol. After taking pictures, the colonies were dissolved in 10% acetic acid solution to measure the optical density.
# Colony formation ability, cell cycle analysis, and cell apoptosis assay were performed in MB cells in presence of drugs as described (Kumar et al. (2021) Biomaterials 278:121138). For the colony formation assay, after taking images, the colonies were dissolved in 10% acetic acid solution to measure the optical density (OD).
smiles,measurement,setting,value
"O=c1cc(N2CCOCC2)oc2c(-c3ccc4c(c3)OCCO4)cccc12 [MDP5, 8-(2,3-dihydrobenzo [b][1,4]dioxin-6-yl)-2-morpholino-4H-chromen-4-one]",survival,[1]; control animals all dead by day 35,four animals out of five survived up to 49 days; also recorded: prolonged the survival
same,orthotopic tumor growth (IVIS imaging),[1]; injection every three days for 28 days,significant effect on the suppression of tumor growth; also recorded: significantly suppressed tumor growth in vivo
same,tumor at cerebellum region by H&E and Ki-67 IHC,[1],much larger tumor at the cerebellum region of the vehicle-treated mouse
same,bioluminescence (BLI) signal,[1]; vs rapid increase in control animals,low BLI signal
same,BCL2 mRNA expression,MB cells; MB cells,significantly reduced
same,cyclin D1 gene expression,MB cells; vs control,decreased significantly
same,change in BRD2-BD2 melting temperature (Tm),BRD2-BD2,2.4 °C
same,percentage of CD15+ cell population,ONS-76 cells,declined as compared to control cells
same,colony formation,[2],significant decrease in colony formation potential; also recorded: lower number of colonies in both cell lines; also recorded: significantly decreased the colony formation capacity
"O=c1cc(N2CCOCC2)oc2c(-c3ccc4c(c3)OCCO4)csc12 [SF2523, reference compound]",tumor at cerebellum region by H&E and Ki-67 IHC,[1],much larger tumor at the cerebellum region of the vehicle-treated mouse
same,change in BRD2-BD2 melting temperature (Tm),BRD2-BD2,6.3 °C
